Test results reported in paper PMC8151276, “An Integrated Approach toward NanoBRET Tracers for Analysis of GPCR Ligand Engagement” (Molecules, 2021).

Molecular target: T1, ADRA1D (Homo sapiens, UniProt P25100)
T1 construct: purchased Promega (in-house HiBiT-GPCR construct library, NanoBRET)
T1 sequence (P25100 1-572): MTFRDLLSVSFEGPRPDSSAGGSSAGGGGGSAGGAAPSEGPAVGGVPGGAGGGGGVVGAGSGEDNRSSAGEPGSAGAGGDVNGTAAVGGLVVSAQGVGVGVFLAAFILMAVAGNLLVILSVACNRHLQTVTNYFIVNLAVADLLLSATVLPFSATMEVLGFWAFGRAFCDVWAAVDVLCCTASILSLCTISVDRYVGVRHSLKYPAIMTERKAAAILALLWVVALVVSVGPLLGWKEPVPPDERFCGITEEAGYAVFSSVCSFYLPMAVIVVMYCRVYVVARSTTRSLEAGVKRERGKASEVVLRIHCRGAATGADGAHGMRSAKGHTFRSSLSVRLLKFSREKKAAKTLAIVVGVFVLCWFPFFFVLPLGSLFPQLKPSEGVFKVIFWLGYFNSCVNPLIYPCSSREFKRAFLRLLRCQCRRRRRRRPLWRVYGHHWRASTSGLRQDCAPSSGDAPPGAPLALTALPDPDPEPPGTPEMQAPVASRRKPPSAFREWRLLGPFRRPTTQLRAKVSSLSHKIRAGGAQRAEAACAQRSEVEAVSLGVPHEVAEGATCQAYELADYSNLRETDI
Assay: NanoBRET screen HiBiT-ADRA1D in HEK293
Type: binding
Description: Each tracer candidate was screened across the entire library of HiBiT-GPCR constructs using NanoBRET as the detection modality. As depicted in Figure 4A, the specificity of interactions was evaluated through decrease in BRET due to competitive displacement of a bound tracer by excess parental compound. Each tracer was analyzed for binding to each HiBiT-GPCR fusion in the absence and in the presence of competing parental compound. Briefly, HEK293 cells were transfected with HiBiT-GPCR constructs diluted into promoterless DNA to reduce expression and maximize translocation to the cell surface. Each tracer candidate was then screened at concentrations of 1 μM and 0.1 μM across cells expressing these fusions. Cells were treated for 1.5 h with tracer either alone or in the presence of 20 μM competing parental compound (i.e., control). BRET was measured upon addition of purified LgBiT and subsequent complementation with HiBiT genetically fused to a GPCR. The specificity of interactions was assessed through a decrease in BRET signal due to competitive displacement of the bound tracer. To further gauge the robustness of these interactions, the fold response over the control (i.e., BRETtracer/BRETcontrol) was calculated. We chose a 1.5-fold response, which translates to ≥7-fold signal over noise as the minimal threshold required to score an interaction as positive.
HiBiT-GPCR DNA constructs were diluted in 10 mM Tris pH 8 to a final concentration of 0.01 μg/μL, arrayed in 96-well plates and stored at −20 °C. For transfection, HEK293 cells were suspended in Opti-MEM (without phenol red) supplemented with 2% fetal bovine serum (Seradigm) and 100 units/mL penicillin–streptomycin (Gibco) at a final concentration of 220,000 cells/mL and dispensed into white 96-well plates at 90 μL/well. Subsequent transfections and screens were carried using an Agilent Bravo Automated Liquid Handling Platform. First, the 96-well HiBiT DNA arrays were diluted 25-fold in Opti-MEM (without serum or phenol red) to a final concentration of 0.0004 μg/μL and 20 μL of the diluted DNAs were transferred into new 96-well plates. Next, promoterless carrier DNA (1 μg/μL) was diluted 25-fold (0.04 μg/μL) and then dispensed into the diluted arrays at 20 μL/well. Following brief mixing, Viafect transfection reagent (Promega) diluted 16-fold into Opti-MEM was dispensed into the plates at 40 μL/well. After mixing by pipetting, plates were incubated for 10 min on the pipetting station deck. The DNA-transfection reagent complexes were then added to plates containing cells. To facilitate the screen, 10 μL of DNA-transfection reagent complexes were added in duplicates to the top 4 and bottom 4 rows, resulting in two identical 48-well arrays per plate. Plates with transfected cells were incubated for 18–20 h at 37 °C/5% CO2. A screen of each tracer across the entire library using two different concentrations requires duplicate plates of transfected cells. Depending on the number of tracers being screened, transfections can be scaled up using the same ratios. The next day, for each tracer, four 20× screening solutions in tracer dilution buffer (Promega) were prepared: two duplicates at final concentration of 20 μM and two duplicates at a final concentration of 2 μM. […] The four resulting solutions were diluted 4-fold in Opti-MEM without serum or phenol red to generate 5× solutions (5 µM and 0.5 µM tracer +/− 100 μM competing compound). To screen the library, a BioTek MultiFlo FX liquid dispenser was used to dispense 22.5 µL of tracer solution to the top 4 rows and 22.5 µL tracer + competing compound solution to the 4 bottom rows. Plates were briefly mixed on an orbital shaker and incubated for 1.5 h at room temperature. […] Plates were briefly mixed on an orbital shaker and incubated for 15 min to allow complementation.

Structure (SMILES)	NanoBRET Fold Response (ADRA1D, tracer 0.1μM)	NanoBRET Fold Response (ADRA1D, tracer 1μM)	also measured
CCOC(=O)c1cc(C#N)c(N2CCC(C(=O)NS(=O)(=O)Cc3ccccc3/C=C/C(=O)NCCNC(=O)CCc3ccc4n3[B-](F)(F)[N+]3=C(c5ccc[nH]5)C=CC3=C4)CC2)nc1C [AZD1283-1-NB590]	–	–	NanoBRET Fold Response (ADRA1D, 0.1μM): 1.02; NanoBRET Fold Response (ADRA1D, 1μM): 1.06
N#CN=C(NCCCOc1cccc(CN2CCCCC2)c1)NCCNC(=O)CCOCCOCCOCCOCCNC(=O)CCc1ccc2n1[B-](F)(F)[N+]1=C(c3ccc[nH]3)C=CC1=C2 [Aminopotentidine-2-NB590]	0.97	–	–
CN(C)CCC=C1c2ccccc2CCc2ccc(C(=O)NCCNC(=O)CCOCCOCCOCCOCCNC(=O)CCc3ccc4n3[B-](F)(F)[N+]3=C(c5ccc[nH]5)C=CC3=C4)cc21 [Amitriptyline-a-2-NB590]	–	–	NanoBRET Fold Response (tracer at 0.1μM): 1.08; NanoBRET Fold Response (tracer at 1μM): 1.11
CN(C)CCC=C1c2ccccc2CCc2ccc(C(=O)NCCNC(=O)CCOCCOCCOCCOCCNC(=O)CCc3ccc4n3[B-](F)(F)[N+]3=C(c5ccc[nH]5)C=CC3=C4)cc21 [Amitriptyline-b-2-NB590]	–	–	NanoBRET Fold Response (tracer at 0.1μM, listed as amitriptyline-b-2-NB590): 1.05; NanoBRET Fold Response (tracer at 1μM, listed as amitriptyline-b-2-NB590): 1.07
CN(CCC=C1c2ccccc2CCc2ccccc21)C(=O)CCOCCOCCOCCOCCNC(=O)CCc1ccc2n1[B-](F)(F)[N+]1=C(c3ccc[nH]3)C=CC1=C2 [Amitriptyline-e-2-NB590]	–	–	NanoBRET Fold Response (tracer at 1μM): 1.07
COc1ccc2c(n1)c(CCNC(C)=O)cn2CCNC(=O)CCc1ccc2n1[B-](F)(F)[N+]1=C(c3ccc[nH]3)C=CC1=C2 [Azamelatonin-1-NB590]	–	–	NanoBRET Fold Response (0.1μM tracer): 1.04; NanoBRET Fold Response (1μM tracer): 0.92
COc1ccc2[nH]c(-c3ccc(CNC(=O)CCOCCOCCOCCOCCNC(=O)CCc4ccc5n4[B-](F)(F)[N+]4=C(c6ccc[nH]6)C=CC4=C5)cc3)c(CCNC(C)=O)c2n1 [AzomelatoninICO9-2-NB590]	–	–	NanoBRET Fold Response (0.1μM tracer): 0.81; NanoBRET Fold Response (1μM tracer): 0.96
O=C(CCOCCOCCOCCOCCNC(=O)CCc1ccc2n1[B-](F)(F)[N+]1=C(c3ccc[nH]3)C=CC1=C2)NCCCN1CCN(C2=Nc3cc(Cl)ccc3Nc3ccccc32)CC1 [Clozapine-a-2-NB590]	–	–	NanoBRET Fold Response (ADRA1D, 0.1μM tracer): 1.21; NanoBRET Fold Response (ADRA1D, 1μM tracer): 1.08
O=C(CCOCCOCCOCCOCCNC(=O)CCc1ccc2n1[B-](F)(F)[N+]1=C(c3ccc[nH]3)C=CC1=C2)NCCCN1CCN(C2=Nc3ccccc3Oc3ccc(Cl)cc32)CC1 [Loxapine-a-2-NB590]	1.07	1.24	–
COc1ccccc1N1CCN(CCCCN2C(=O)c3ccc(CNC(=O)CCOCCOCCOCCOCCNC(=O)CCc4ccc5n4[B-](F)(F)[N+]4=C(c6ccc[nH]6)C=CC4=C5)cc3C2=O)CC1 [NAN-190-2-NB590]	1.10	1.13	–
COc1ccccc1N1CCN(CCCCN2C(=O)c3ccc(CNC(=O)CCOCCNC(=O)c4ccc(CNC(=O)CCc5ccc6n5[B-](F)(F)[N+]5=C(c7ccc[nH]7)C=CC5=C6)cc4)cc3C2=O)CC1 [NAN-190-3-NB590]	–	1.16	–
O=C(CCc1ccc2n1[B-](F)(F)[N+]1=C(c3ccc[nH]3)C=CC1=C2)NCc1ccc(C(=O)NCCOCCC(=O)N[C@@H]2CC[C@@]3(O)[C@H]4Cc5ccc(O)c6c5[C@@]3(CCN4CC3CC3)[C@H]2O6)cc1 [Naltrexone-3-NB590]	1.36	1.31	–
Cc1cc2c(s1)Nc1ccccc1N=C2N1CCN(CCCNC(=O)CCOCCOCCOCCOCCNC(=O)CCc2ccc3n2[B-](F)(F)[N+]2=C(c4ccc[nH]4)C=CC2=C3)CC1 [Olanzapine-a-2-NB590]	–	1.06	–
O=C(CCc1ccc2n1[B-](F)(F)[N+]1=C(c3ccc[nH]3)C=CC1=C2)NCc1ccc(C(=O)NCCOCCOCCNCC(O)COc2cccc3ccccc23)cc1 (stereo not shown) [Propranolol-3-NB590]	–	–	NanoBRET Fold Response (ADRA1D, 0.1μM): 1.11; NanoBRET Fold Response (ADRA1D, 1μM): 1.09
O=C(CCc1ccc2n1[B-](F)(F)[N+]1=C(c3ccc[nH]3)C=CC1=C2)NCCOCCOCCNC(=O)OCCOCCN1CCN(C2=Nc3ccccc3Sc3ccccc32)CC1 [Quetiapine-a-2-NB590]	1.13	1.06	–
Cc1nc2n(c(=O)c1CCN1CCC(c3noc4cc(F)ccc34)CC1)CCCC2OC(=O)NCCOCCOCCOCCOCCNC(=O)CCc1ccc2n1[B-](F)(F)[N+]1=C(c3ccc[nH]3)C=CC1=C2 (stereo not shown) [Risperidone-2-NB590]	1.27	1.16	–
CC(C)N(CC[C@H](c1ccccc1)c1cc(CCNC(=O)CCOCCOCCOCCOCCNC(=O)CCc2ccc3n2[B-](F)(F)[N+]2=C(c4ccc[nH]4)C=CC2=C3)ccc1O)C(C)C [Tolterodine-2-NB590]	0.95	1.00	–
CC(C)N(CC[C@H](c1ccccc1)c1cc(CCNC(=O)c2ccc(CNC(=O)CCc3ccc4n3[B-](F)(F)[N+]3=C(c5ccc[nH]5)C=CC3=C4)cc2)ccc1O)C(C)C [Tolterodine-BZ-NB590]	1.15	1.05	–
CCCn1c(=O)c2[nH]c(-c3ccc(OCC(=O)NCCNC(=O)CCOCCNC(=O)c4ccc(CNC(=O)CCc5ccc6n5[B-](F)(F)[N+]5=C(c7ccc[nH]7)C=CC5=C6)cc4)cc3)nc2n(CCC)c1=O [XAC-3-NB590]	1.02	1.10	–
